From US9765056B2, “Indole and pyrrole compounds, a process for their preparation and pharmaceutical compositions containing them” (LES LABORATOIRES SERVIER, priority 2013, dated 2017)
Where a name gives a salt, the structure may show the parent alone.

Assays:
Bcl-2 protein = Bcl-2 protein (histag-Bcl-2, UniProtKB P10415) (Homo sapiens (Human), UniProt P10415); experiment: Inhibition of Bcl-2 by the fluorescence polarisation technique; format: binding; details: fluorescence polarisation test; method A, or method B where underlined (underlining not visible); read-out: IC50 (nM) Bcl-2 FP
Chain of Bcl-2 protein (P10415 whole entry): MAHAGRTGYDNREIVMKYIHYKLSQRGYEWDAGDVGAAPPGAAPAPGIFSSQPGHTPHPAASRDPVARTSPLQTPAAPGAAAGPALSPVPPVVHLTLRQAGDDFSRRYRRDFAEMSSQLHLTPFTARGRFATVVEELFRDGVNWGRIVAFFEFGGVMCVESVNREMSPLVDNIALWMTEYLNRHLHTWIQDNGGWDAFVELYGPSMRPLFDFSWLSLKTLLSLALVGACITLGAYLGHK
Text: Inhibition of Bcl-2 by the fluorescence polarisation technique

[1] = system: RS4;11 leukaemia tumour line; experiment: In vitro cytotoxicity, Microculture Tetrazolium Assay (MTT); format: cell-based; details: Homo sapiens; RS4;11 cells, 48 hours exposure
Description: The cytotoxicity studies were carried out on the RS4;11 leukaemia tumour line.
The cells are distributed onto microplates and exposed to the test compounds for 48 hours. The cell viability is then quantified by a colorimetric assay, the Microculture Tetrazolium Assay (Cancer Res., 1987, 47, 939-942).

Row | SMILES | IC50 (Bcl-2 protein) | IC50 [1]
1 | Cc1cc(C(=O)N(c2ccccc2)c2ccc(O)cc2)cn1-c1cc2c(cc1C(=O)N1Cc3ccccc3C[C@H]1CCN1CCOCC1)OCO2 [Example 120, N-(4-Hydroxyphenyl)-5-methyl-1-(6-{[(3S)-3-[2-(morpholin-4-yl)ethyl]-3,4-dihydroisoquinolin-2(1H)-yl]carbonyl}-1,3-benzodioxol-5-yl)-N-phenyl-1H-pyrrole-3-carboxamide hydrochloride] | 15 nM | 367 nM
2 | COc1ccc(C(=O)N2Cc3ccccc3C[C@H]2CN2CCN(C)CC2)c(-n2cc(C(=O)N(c3ccccc3)c3ccc(O)cc3)c3ccccc32)c1 [Example 168, N-(4-Hydroxyphenyl)-1-{5-methoxy-2-[(3S)-3-[(4-methylpiperazin-1-yl)methyl]-1,2,3,4-tetrahydroisoquinoline-2-carbonyl]phenyl}-N-phenyl-1H-indole-3-carboxamide dihydrochloride] | 11.4 nM | 188 nM
3 | CN1CCN(C[C@@H]2Cc3ccccc3CN2C(=O)c2ccc(Br)cc2-n2cc(C(=O)N(c3ccc(O)cc3)c3ccc(Cl)cc3)c3ccccc32)CC1 [Example 59, 1-(5-Bromo-2-{[(3S)-3-[(4-methylpiperazin-1-yl)methyl]-3,4-dihydroisoquinolin-2(1H)-yl]carbonyl}phenyl)-N-(4-chlorophenyl)-N-(4-hydroxyphenyl)-1H-indole-3-carboxamide] | 19.2 nM | 206 nM
4 | Cc1cc(C(=O)N(c2ccccc2)c2ccc(O)cc2)cn1-c1cc2c(cc1C(=O)N1Cc3ccccc3C[C@H]1CN1CCOCC1)CCC2 [Example 107, N-(4-Hydroxyphenyl)-5-methyl-1-(6-{[(3S)-3-(morpholin-4-ylmethyl)-3,4-dihydroisoquinolin-2(1H)-yl]carbonyl}-2,3-dihydro-1H-inden-5-yl)-N-phenyl-1H-pyrrole-3-carboxamide hydrochloride] | 44 nM | 150 nM
5 | CCCCN(CCCC)C(=O)c1cn(-c2ccc(NC(=O)COc3ccccc3)cc2C(=O)N2Cc3ccccc3C[C@H]2CN2CCN(C)CC2)c2ccccc12 [Example 200, N,N-Dibutyl-1-{2-[(3S)-3-[(4-methylpiperazin-1-yl)methyl]-1,2,3,4-tetrahydroisoquinoline-2-carbonyl]-4-(2-phenoxyacetamido)phenyl}-1H-indole-3-carboxamide] | 155 nM | 2080 nM
6 | NC[C@@H]1Cc2ccccc2CN1C(=O)c1cc(N)ccc1-n1nc(C(=O)N(c2ccccc2)c2ccccc2)c2ccccc21 [Example 138, 1-{4-Amino-2-[(3S)-3-(aminomethyl)-1,2,3,4-tetrahydroisoquinoline-2-carbonyl]phenyl}-N,N-diphenyl-1H-indazole-3-carboxamide] | 52.2 nM | 2020 nM
7 | Cc1cc(C(=O)N(c2ccccc2)c2ccc(O)cc2)cn1-c1cc(F)ccc1C(=O)N1Cc2ccccc2C[C@H]1CN(C)C [Example 14, 1-(2-{[(3S)-3-[(Dimethylamino)methyl]-3,4-dihydroisoquinolin-2(1H)-yl]carbonyl}-5-fluorophenyl)-N-(4-hydroxyphenyl)-5-methyl-N-phenyl-1H-pyrrole-3-carboxamide] | 24.8 nM | 1270 nM
8 | Cc1ccc(N(C(=O)c2cn(-c3cc(Br)ccc3C(=O)N3Cc4ccccc4C[C@H]3CN3CCN(C)CC3)c3ccccc23)c2ccc(O)cc2)cc1 [Example 57, 1-(5-Bromo-2-{[(3S)-3-[(4-methylpiperazin-1-yl)methyl]-3,4-dihydroisoquinolin-2(1H)-yl]carbonyl}phenyl)-N-(4-hydroxyphenyl)-N-(4-methylphenyl)-1H-indole-3-carboxamide] | 13.4 nM | 267 nM
9 | CCC1COc2cc(-n3cc(C(=O)N(c4ccccc4)c4ccc(O)cc4)c4ccccc43)c(C(=O)N3Cc4ccccc4C[C@H]3CN3CCN(C)CC3)cc2O1 (stereo partly drawn) [Example 185, 1-{2-Ethyl-7-[(3S)-3-[(4-methylpiperazin-1-yl)methyl]-1,2,3,4-tetrahydroisoquinoline-2-carbonyl]-2,3-dihydro-1,4-benzodioxin-6-yl}-N-(4-hydroxyphenyl)-N-phenyl-1H-indole-3-carboxamide] | 17.3 nM | 422 nM
10 | CN1CCN(C[C@@H]2Cc3ccccc3CN2C(=O)c2cc3c(cc2-n2cc(C(=O)N(c4ccccc4)c4ccc(O)cc4)c4ccccc42)OCCO3)CC1 [Example 170, N-(4-Hydroxyphenyl)-1-{7-[(3S)-3-[(4-methylpiperazin-1-yl)methyl]-1,2,3,4-tetrahydroisoquinoline-2-carbonyl]-2,3-dihydro-1,4-benzodioxin-6-yl}-N-phenyl-1H-indole-3-carboxamide] | 16.8 nM | 177 nM

Stronger by IC50 (Bcl-2 protein), values ahead:

Row | IC50 (Bcl-2 protein) | SMILES | IC50 [1]
11 | 8.4 nM | Cc1cc(C(=O)N(c2ccc(O)cc2)c2ccc3[nH]ccc3c2)cn1-c1cc(Br)ccc1C(=O)N1Cc2ccccc2C[C@H]1CN1CCN(C2CCC2)CC1 [Example 102, 1-(5-Bromo-2-{[(3S)-3-[(4-cyclobutylpiperazin-1-yl)methyl]-3,4-dihydroisoquinolin-2(1H)-yl]carbonyl}phenyl)-N-(4-hydroxyphenyl)-N-(1H-indol-5-yl)-5-methyl-1H-pyrrole-3-carboxamide] | 108 nM
12 | 7.5 nM | Cc1cc(C(=O)N(c2ccccc2)c2ccc(O)cc2)cn1-c1cc(Cl)ccc1C(=O)N1Cc2ccccc2C[C@H]1CN1CCN(C)CC1 [Example 26, 1-(5-Chloro-2-{[(3S)-3-[(4-methylpiperazin-1-yl)methyl]-3,4-dihydroisoquinolin-2(1H)-yl]carbonyl}phenyl)-N-(4-hydroxyphenyl)-5-methyl-N-phenyl-1H-pyrrole-3-carboxamide] | 171 nM
13 | 7.5 nM | Cc1cc(C(=O)N(c2ccc(O)cc2)c2ccc(Cl)cc2)cn1-c1cc(Br)ccc1C(=O)N1Cc2ccccc2C[C@H]1CN1CCN(C)CC1 [Example 62, 1-(5-Bromo-2-{[(3S)-3-[(4-methylpiperazin-1-yl)methyl]-3,4-dihydroisoquinolin-2(1H)-yl]carbonyl}phenyl)-N-(4-chlorophenyl)-N-(4-hydroxyphenyl)-5-methyl-1H-pyrrole-3-carboxamide] | 205 nM
14 | 7.1 nM | CN1CCN(C[C@@H]2Cc3ccccc3CN2C(=O)c2ccc(Cl)cc2-n2cc(C(=O)N(c3ccc(O)cc3)c3ccc(F)cc3)c3ccccc32)CC1 [Example 75, 1-(5-Chloro-2-{[(3S)-3-[(4-methylpiperazin-1-yl)methyl]-3,4-dihydroisoquinolin-2(1H)-yl]carbonyl}phenyl)-N-(4-fluorophenyl)-N-(4-hydroxyphenyl)-1H-indole-3-carboxamide] | 184 nM
15 | 6.9 nM | CC(C)n1ccc2cc(N(C(=O)c3cn(-c4cc5c(cc4C(=O)N4Cc6ccccc6C[C@H]4CN4CCN(C)CC4)OCO5)c4ccccc34)c3ccc(O)cc3)ccc21 [Example 100, N-(4-Hydroxyphenyl)-1-(6-{[(3S)-3-[(4-methylpiperazin-1-yl)methyl]-3,4-dihydroisoquinolin-2(1H)-yl]carbonyl}-1,3-benzodioxol-5-yl)-N-[1-(propan-2-yl)-1H-indol-5-yl]-1H-indole-3-carboxamide] | 43.4 nM
16 | 6.7 nM | CCCCN(C(=O)c1cn(-c2cc(OC)c(O)cc2C(=O)N2Cc3ccccc3C[C@H]2CN2CCN(C)CC2)c2ccccc12)c1ccccc1 [Example 194, N-Butyl-1-{4-hydroxy-5-methoxy-2-[(3S)-3-[(4-methylpiperazin-1-yl)-methyl]-1,2,3,4-tetrahydroisoquinoline-2-carbonyl]phenyl}-N-phenyl-1H-indole-3-carboxamide dihydrochloride] | 534 nM
17 | 5 nM | CN1CCN(C[C@@H]2Cc3ccccc3CN2C(=O)c2cc3c(cc2-n2cc(C(=O)N(c4ccc(O)cc4)c4ccc(F)c(F)c4)c4ccccc42)OCO3)CC1 [Example 56, N-(3,4-Difluorophenyl)-N-(4-hydroxyphenyl)-1-(6-{[(3S)-3-[(4-methylpiperazin-1-yl)methyl]-3,4-dihydroisoquinolin-2(1H)-yl]carbonyl}-1,3-benzodioxol-5-yl)-1H-indole-3-carboxamide] | 135 nM
18 | 3.7 nM | CN1CCN(C[C@@H]2Cc3ccccc3CN2C(=O)c2cc(F)c(Cl)cc2-n2cc(C(=O)N(c3ccc(O)cc3)c3ccc4c(ccn4C)c3)c3ccccc32)CC1 [Example 78, 1-(5-Chloro-4-fluoro-2-{[(3S)-3-[(4-methylpiperazin-1-yl)methyl]-3,4-dihydroisoquinolin-2(1H)-yl]carbonyl}phenyl)-N-(4-hydroxyphenyl)-N-(1-methyl-1H-indol-5-yl)-1H-indole-3-carboxamide hydrochloride] | 81.4 nM
19 | 3.7 nM | Cc1cc(C(=O)N(c2ccc(O)cc2)c2ccc(O)cc2)cn1-c1cc2c(cc1C(=O)N1Cc3ccccc3C[C@H]1CN1CCN(C)CC1)OCO2 [Example 83, N,N-bis(4-Hydroxyphenyl)-5-methyl-1-(6-{[(3S)-3-[(4-methylpiperazin-1-yl)methyl]-3,4-dihydroisoquinolin-2(1H)-yl]carbonyl}-1,3-benzodioxol-5-yl)-1H-pyrrole-3-carboxamide] | 350 nM
20 | 3.5 nM | Cc1ccc(N(C(=O)c2cn(-c3cc4c(cc3C(=O)N3Cc5ccccc5C[C@H]3CN3CCN(C)CC3)OCO4)c3ccccc23)c2ccc(O)cc2)cc1 [Example 32, N-(4-Hydroxyphenyl)-N-(4-methylphenyl)-1-(6-{[(3S)-3-[(4-methylpiperazin-1-yl)methyl]-3,4-dihydroisoquinolin-2(1H)-yl]carbonyl}-1,3-benzodioxol-5-yl)-1H-indole-3-carboxamide] | 63.7 nM
21 | 3.3 nM | CN1CCN(C[C@@H]2Cc3ccccc3CN2C(=O)c2ccc(Cl)cc2-n2cc(C(=O)N(c3ccc(O)cc3)c3ccc4c(ccn4C)c3)c3ccccc32)CC1 [Example 93, 1-(5-Chloro-2-{[(3S)-3-[(4-methylpiperazin-1-yl)methyl]-3,4-dihydroisoquinolin-2(1H)-yl]carbonyl}phenyl)-N-(4-hydroxyphenyl)-N-(1-methyl-1H-indol-5-yl)-1H-indole-3-carboxamide] | 75.4 nM
